Reference: US20220226343A1, “3-AMINO-4-[4-[4 (DIMETHYLCARBAMOYL) PHENYL]-1,4-DIAZEPAN-1-YL]THIENO[2,3-B]PYRIDINE-2-CARBOXAMIDE FOR USE IN CANCER THERAPY AND FORMULATIONS COMPRISING THE SAME” (University of South Carolina, priority 2019, published 2022)

Columns and labels:
[1] = Oral PK by formulation, male FVB mice 50 mg/kg; details: for Elimination rate k: male FVB
[2] = test system: MYC-CAP-CR cells; assay: Short-term cell proliferation assay, MYC-CAP-CR; assay type: cell-based, murine; details: androgen-containing media
From the text: (§1) MYC-CaP-CR cells (Ellis L. et al., 2012. Prostate 72(6):587-591) were selected for castration resistance from genetically engineered MYC-CaP cells that express MYC from an AR-responsive promoter (Watson P A, et al., 2005. Cancer Res 65(24):11565-11571). Castration resistance in these cells is associated with the overexpression of full-length AR rather than an AR variant, such as AR-V7 in 22rv1 (Olson B M, et al., 2017. Cancer immunology research 5(12):1074-1085).

[3] = MTD, medicated diet 4 or 5 weeks, CD-1 mice; assay type: in vivo, mouse; details: female CD-1 mice, 1000 ppm medicated diet, first week
Procedure: In another long-term MTD in vivo assay, groups of male and female CD-1 mice were fed regular diet (control) or 15u-medicated diet (500 ppm or 1000 ppm) for 4 or 5 weeks (FIG. 16B). The daily doses of 500 ppm and 1000 ppm groups were estimated to be about 50-100 mg/kg and 100-200 mg/kg, respectively, based on daily diet consumption.

[4] = test system: alkaline phosphatase (ALPase); details: concentration that enhances ALPase activity to 200% of control, ST2 cells; cited from earlier work
[5] = test system: 4T1 murine TNBC lung metastasis; assay: 4T1 breast cancer metastasis survival after primary tumor removal; assay type: in vivo, mouse; details: 15u 25 mg/kg oral b.i.d. after removal of the primary 4T1 tumor
Procedure: 4T1 is a murine triple-negative breast cancer (TNBC) cell line, which is highly metastatic to the lungs. […] Parental and CDK8-knockdown 4T1 cells (n=10) were injected orthotopically in the mammary fat pad and the primary tumors were removed 17 days later. Following surgery, all the mice eventually died with lung metastases. […] However, the loss of CDK8 was associated with a strong increase in the survival of mice (FIG. 10C). […]

[6] = test system: MYC-CaP-CR tumors; assay: MYC-CaP-CR tumors subcutaneous in intact FVB male mice; assay type: in vivo, mouse
From the text: as §1

[7] = Mouse PK, intravenous 0.5 mg/kg; assay type: in vivo; details: i.v. 0.5 mg/kg, male FVB mice, mixture
[8] = test system: CRPC cell line 22rv1 xenograft
[9] = biological target: T1, CDC2L5 (Homo sapiens, UniProt Q14004); assay: KINOMEscan scanMAX; assay type: binding; details: CDC2L5, 2000 nM
T1 construct: purchased DiscoverX (KINOMEscan scanMAX service)
T1 sequence (Q14004 whole entry): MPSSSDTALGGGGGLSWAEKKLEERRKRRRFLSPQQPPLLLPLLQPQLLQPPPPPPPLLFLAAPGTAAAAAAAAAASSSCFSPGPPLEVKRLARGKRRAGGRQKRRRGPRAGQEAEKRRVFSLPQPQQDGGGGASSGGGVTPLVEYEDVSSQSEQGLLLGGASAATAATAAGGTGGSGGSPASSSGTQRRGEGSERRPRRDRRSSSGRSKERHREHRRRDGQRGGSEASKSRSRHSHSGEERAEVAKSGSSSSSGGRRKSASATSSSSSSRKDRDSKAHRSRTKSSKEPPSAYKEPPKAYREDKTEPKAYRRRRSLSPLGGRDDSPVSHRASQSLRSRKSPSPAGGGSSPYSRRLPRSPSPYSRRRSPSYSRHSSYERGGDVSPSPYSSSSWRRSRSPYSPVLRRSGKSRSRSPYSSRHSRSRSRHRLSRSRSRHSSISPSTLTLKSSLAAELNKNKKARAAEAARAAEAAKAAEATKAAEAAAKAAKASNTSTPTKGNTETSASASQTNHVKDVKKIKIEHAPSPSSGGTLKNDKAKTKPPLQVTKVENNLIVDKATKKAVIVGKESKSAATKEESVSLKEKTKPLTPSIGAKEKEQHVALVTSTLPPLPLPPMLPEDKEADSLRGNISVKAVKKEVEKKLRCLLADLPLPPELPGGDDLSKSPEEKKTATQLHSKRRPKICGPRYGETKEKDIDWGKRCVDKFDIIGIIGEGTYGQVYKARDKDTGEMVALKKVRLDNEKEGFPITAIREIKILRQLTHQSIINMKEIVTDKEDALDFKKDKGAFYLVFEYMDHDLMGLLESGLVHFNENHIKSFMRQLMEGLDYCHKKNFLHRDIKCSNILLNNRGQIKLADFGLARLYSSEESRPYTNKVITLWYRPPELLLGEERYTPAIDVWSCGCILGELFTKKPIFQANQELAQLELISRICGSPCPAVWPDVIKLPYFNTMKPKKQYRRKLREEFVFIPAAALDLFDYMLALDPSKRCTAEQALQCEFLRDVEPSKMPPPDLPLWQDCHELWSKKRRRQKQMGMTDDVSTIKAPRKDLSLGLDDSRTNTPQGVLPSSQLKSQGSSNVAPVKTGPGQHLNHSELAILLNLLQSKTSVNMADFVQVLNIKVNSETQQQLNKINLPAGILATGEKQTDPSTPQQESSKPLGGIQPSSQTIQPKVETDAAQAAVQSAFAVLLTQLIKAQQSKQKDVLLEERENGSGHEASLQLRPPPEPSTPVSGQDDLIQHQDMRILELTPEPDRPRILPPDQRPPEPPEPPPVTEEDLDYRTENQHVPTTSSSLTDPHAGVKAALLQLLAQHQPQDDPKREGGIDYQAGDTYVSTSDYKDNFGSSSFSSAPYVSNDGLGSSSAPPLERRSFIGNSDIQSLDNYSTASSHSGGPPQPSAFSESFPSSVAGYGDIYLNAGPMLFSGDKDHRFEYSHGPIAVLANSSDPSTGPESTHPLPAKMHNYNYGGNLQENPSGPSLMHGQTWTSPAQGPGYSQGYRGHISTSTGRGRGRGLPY
From the text: (§2) Nat. Biotechnol. 23, 329-336 (2005).
(§3) Percent Control (% Ctrl).
(§4) % Ctrl=100×(TS−CPOS)/(CNEG−CPOS) (eqn 1)

[10] = biological target: T2, PFPK5(P. falciparum) (Plasmodium falciparum, UniProt P61075); assay: KINOMEscan scanMAX; assay type: binding; details: 2000 nM
T2 construct: purchased KINOMEscan (DiscoveRx) scanMAX panel
T2 sequence (P61075 whole entry): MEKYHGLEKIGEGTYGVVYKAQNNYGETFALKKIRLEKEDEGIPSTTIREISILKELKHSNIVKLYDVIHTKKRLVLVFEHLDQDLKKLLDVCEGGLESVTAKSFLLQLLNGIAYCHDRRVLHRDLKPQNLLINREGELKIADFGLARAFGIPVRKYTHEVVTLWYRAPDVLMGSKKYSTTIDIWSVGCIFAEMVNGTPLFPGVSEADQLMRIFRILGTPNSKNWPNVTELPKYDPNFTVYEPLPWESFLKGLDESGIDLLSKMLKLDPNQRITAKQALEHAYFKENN
From the text: as §2, §3, §4

[11] = biological target: T3, PRP4 (Homo sapiens, UniProt Q13523); assay: KINOMEscan scanMAX; assay type: binding; details: PRP4, 2000 nM
T3 construct: DNA label (qPCR read-out); purchased DiscoverX (KINOMEscan)
T3 sequence (Q13523 whole entry): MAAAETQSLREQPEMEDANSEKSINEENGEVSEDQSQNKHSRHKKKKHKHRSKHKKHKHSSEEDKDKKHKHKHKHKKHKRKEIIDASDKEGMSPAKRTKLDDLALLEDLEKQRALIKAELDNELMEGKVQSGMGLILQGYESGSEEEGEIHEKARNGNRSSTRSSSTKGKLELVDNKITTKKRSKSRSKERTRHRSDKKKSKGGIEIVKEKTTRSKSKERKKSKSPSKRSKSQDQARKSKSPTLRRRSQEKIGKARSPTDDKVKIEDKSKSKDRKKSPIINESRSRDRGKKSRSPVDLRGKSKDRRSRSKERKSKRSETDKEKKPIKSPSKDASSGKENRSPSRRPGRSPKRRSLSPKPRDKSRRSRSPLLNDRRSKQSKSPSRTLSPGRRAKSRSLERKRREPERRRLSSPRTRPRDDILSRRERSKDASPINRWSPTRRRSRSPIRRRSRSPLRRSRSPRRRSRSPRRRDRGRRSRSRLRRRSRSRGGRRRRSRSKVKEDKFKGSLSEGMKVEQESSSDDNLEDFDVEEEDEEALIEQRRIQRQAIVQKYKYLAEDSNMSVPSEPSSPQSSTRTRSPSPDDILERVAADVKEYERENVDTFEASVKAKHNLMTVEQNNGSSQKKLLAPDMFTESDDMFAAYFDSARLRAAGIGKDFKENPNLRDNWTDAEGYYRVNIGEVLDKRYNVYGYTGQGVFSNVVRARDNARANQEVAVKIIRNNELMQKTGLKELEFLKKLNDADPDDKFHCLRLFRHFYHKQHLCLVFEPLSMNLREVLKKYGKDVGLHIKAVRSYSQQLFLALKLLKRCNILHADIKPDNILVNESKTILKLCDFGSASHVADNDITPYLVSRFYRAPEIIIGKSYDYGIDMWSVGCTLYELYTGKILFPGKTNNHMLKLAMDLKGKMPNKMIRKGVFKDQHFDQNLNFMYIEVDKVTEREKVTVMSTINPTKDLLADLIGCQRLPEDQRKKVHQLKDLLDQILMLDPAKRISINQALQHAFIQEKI
From the text: as §2, §3, §4

[12] = biological target: T4, PKNB(M. tuberculosis) (Mycobacterium tuberculosis, UniProt P9WI81); assay: KINOMEscan scanMAX; assay type: binding; details: 2000 nM
T4 construct: purchased DiscoveRx (KINOMEscan scanMAX panel)
T4 sequence (P9WI81 whole entry): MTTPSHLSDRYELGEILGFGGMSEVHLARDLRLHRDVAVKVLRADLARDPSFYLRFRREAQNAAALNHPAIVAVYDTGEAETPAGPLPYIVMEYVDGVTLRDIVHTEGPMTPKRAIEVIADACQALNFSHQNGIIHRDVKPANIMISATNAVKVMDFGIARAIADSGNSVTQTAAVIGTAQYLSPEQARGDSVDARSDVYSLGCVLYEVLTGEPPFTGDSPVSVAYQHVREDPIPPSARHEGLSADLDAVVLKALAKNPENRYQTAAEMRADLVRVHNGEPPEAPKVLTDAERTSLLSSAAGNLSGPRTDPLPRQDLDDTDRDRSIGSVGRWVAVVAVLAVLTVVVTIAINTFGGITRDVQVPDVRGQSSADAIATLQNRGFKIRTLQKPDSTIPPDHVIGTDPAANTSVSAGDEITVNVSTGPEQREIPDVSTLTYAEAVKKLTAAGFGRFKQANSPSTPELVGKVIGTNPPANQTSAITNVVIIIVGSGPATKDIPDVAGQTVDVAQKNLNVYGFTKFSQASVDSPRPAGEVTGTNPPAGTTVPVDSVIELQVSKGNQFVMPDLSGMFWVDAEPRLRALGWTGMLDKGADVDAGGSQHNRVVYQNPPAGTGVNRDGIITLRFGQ
From the text: as §2, §3, §4

[13] = test system: FLT3(ITD, F691L); assay: KINOMEscan scanMAX; assay type: binding; details: 2000 nM
From the text: as §2, §3, §4

[14] = test system: FLT3(ITD, D835V); assay: KINOMEscan scanMAX; assay type: binding; details: 2000 nM
From the text: as §2, §3, §4

[15] = biological target: T5, PFCDPK1(P. falciparum) (Plasmodium falciparum, UniProt P62344); assay: KINOMEscan scanMAX; assay type: binding; details: 2000 nM
T5 construct: DNA label (qPCR read-out); purchased DiscoveRx (KINOMEscan scanMAX)
T5 sequence (P62344 whole entry): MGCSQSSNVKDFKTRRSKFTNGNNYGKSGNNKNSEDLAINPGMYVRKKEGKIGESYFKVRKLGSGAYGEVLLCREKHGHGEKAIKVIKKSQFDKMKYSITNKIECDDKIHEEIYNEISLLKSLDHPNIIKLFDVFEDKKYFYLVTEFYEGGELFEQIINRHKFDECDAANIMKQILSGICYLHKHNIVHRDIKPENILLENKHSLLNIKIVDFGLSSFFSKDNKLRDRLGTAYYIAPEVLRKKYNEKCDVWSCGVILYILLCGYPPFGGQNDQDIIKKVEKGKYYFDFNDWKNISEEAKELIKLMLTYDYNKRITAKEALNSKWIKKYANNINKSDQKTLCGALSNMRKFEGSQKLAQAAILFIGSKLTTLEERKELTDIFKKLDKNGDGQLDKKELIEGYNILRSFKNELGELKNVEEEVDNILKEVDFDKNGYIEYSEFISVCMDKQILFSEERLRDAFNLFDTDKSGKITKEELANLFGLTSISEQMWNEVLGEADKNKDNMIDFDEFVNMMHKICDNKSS
From the text: as §2, §3, §4

[16] = test system: FLT3(ITD); assay: KINOMEscan scanMAX; assay type: binding; details: 2000 nM
From the text: as §2, §3, §4

[17] = biological target: CSNK1D (Homo sapiens, UniProt P48730); assay: Kd Elect binding assay (DiscoverX)
Chain of CSNK1D (P48730 whole entry): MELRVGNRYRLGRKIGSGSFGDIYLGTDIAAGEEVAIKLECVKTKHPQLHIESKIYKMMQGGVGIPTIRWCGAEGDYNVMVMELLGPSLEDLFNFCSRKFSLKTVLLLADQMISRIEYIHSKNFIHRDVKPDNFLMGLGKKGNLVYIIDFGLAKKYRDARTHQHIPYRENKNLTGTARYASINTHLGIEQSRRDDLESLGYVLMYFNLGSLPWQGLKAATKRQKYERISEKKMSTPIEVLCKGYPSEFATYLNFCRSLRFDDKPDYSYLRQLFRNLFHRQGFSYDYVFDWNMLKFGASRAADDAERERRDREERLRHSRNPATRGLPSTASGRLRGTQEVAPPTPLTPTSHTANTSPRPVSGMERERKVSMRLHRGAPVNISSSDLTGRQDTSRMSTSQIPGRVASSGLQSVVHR

[18] = test system: MV4-11 cells; assay: cells; details: Homo sapiens, MV4-11, read-out: Inhibition Potency MV4-11-Luc Assay
[19] = Oral PK by formulation, male Sprague Dawley rats 30 mg/kg; assay type: in vivo, rat; details: oral 30 mg/kg
Procedure: We have also compared the PK of Suspension Vehicle 1 and Liquid formulation 2 in male Sprague Dawley rats, after oral administration at 30 mg/kg.

[20] = in vivo; details: female, CD-1, mouse, in vivo, po, 30 mg/kg
[21] = 50 mg/kg orally daily, castrated male nude mice

SMILES: CN(C)C(=O)c1ccc(N2CCCN(c3ccnc4sc(C(N)=O)c(N)c34)CC2)cc1 [Compound 15u, 3-amino-4-(4-(4-(dimethylcarbamoyl)phenyl)-1,4-diazepan-1-yl)thieno[2,3-b]pyridine-2-carboxamide]
- Elimination rate k ([1]; LF-V#1, oral 50 mg/kg): 0.13 h⁻¹
- Elimination rate k ([1]; Sus-V#1, oral 50 mg/kg): 0.25 h⁻¹
- increase of AUC, Liquid formulation 1 vs Suspension Vehicle 1 ([1]; oral 50 mg/kg, male FVB mice): 2.3 fold
- increase of t1/2, Liquid formulation 1 vs Suspension Vehicle 1 ([1]; oral 50 mg/kg, male FVB mice): ~2 fold
- MYC-CAP-CR cell growth [2]: little effect
- weight loss [3]: 5-10%
- ALP activity Assay EC200 [4]: 31.9 nM
- mouse survival of the metastatic disease [5]: significantly increased mouse survival
- MYC-CaP-CR tumor volume and weight [6]: modest effect
- Elimination rate [7]: 1.98 h⁻¹
- 22rv1 tumor growth over the long term ([8]; 50 mg/kg once a day, 25 mg/kg twice a day, 50 mg/kg twice a day): drastically inhibited 22rv1 tumor growth
- 22rv1 xenograft tumor growth [8, 21]: strongly suppressed the tumor growth
- adverse effects and mouse body weight [8, 21]: no apparent adverse effects and no diminution of mouse body weight
- % Ctrl [9]: 71 % Ctrl
- % Ctrl [10]: 68 % Ctrl
- % Ctrl [11]: 100 % Ctrl
- % Ctrl [12]: 100 % Ctrl
- % Ctrl [13]: 95 % Ctrl
- % Ctrl [14]: 41 % Ctrl
- % Ctrl [15]: 94 % Ctrl
- % Ctrl [16]: 82 % Ctrl
- Kd [17]: 860 nM
- IC50 [18]: 30 nM
- increase of AUC, Liquid formulation 2 vs Suspension Vehicle 1 [19]: > 3 fold
- AUC(0-t) [20]: 6600 ng·h/mL
